In ChEMBL document CHEMBL1201862, “PubChem BioAssay data set” (2004) one finds IC50 data, which are given here for two compounds.

The structures appear in SMILES notation. Calls of active or inactive are those of the source. Rule as the data show it: actives have a measured IC50 and inactives only a lower limit.

In this assay the target is Envelope glycoprotein gp160 (Human immunodeficiency virus 1, UniProt Q6QLK5). The assay is described as follows: inhibitors of HIV fusion peptide binding, primary screen, biochemical, uHTS, fluorescence dequenching (AID 1986).
Sequence of Envelope glycoprotein gp160 (Q6QLK5 whole entry, the tested form may be a part): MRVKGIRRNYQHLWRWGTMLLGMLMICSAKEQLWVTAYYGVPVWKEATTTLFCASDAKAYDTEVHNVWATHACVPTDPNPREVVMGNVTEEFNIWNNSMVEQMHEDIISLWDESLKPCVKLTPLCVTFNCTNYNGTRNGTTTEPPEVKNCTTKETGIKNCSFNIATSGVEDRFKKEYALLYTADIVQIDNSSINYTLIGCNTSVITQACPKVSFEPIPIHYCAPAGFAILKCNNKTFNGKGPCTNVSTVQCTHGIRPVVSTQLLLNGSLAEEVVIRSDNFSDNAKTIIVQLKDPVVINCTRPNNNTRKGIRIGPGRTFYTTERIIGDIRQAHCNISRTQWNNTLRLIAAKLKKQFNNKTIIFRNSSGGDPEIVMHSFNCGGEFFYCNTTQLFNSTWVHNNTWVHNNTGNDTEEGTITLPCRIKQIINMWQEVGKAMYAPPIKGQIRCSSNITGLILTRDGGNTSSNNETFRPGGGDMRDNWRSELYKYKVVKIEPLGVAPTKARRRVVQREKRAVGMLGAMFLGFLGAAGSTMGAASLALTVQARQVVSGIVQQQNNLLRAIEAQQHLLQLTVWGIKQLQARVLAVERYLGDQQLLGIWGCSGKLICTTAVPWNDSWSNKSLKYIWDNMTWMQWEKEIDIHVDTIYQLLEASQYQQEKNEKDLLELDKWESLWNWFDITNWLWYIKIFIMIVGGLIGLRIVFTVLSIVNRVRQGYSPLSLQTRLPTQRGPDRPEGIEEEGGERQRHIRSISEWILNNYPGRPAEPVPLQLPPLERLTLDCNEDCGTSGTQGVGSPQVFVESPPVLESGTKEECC

Usually IC50 stands for the concentration needed to halve the response being measured. In the case of `CC(C)(C)c1ccc(S(=O)(=O)/N=C2\C=C(NS(=O)(=O)c3ccccc3)C(=O)c3ccccc32)cc1`, the 50% inhibitory concentration (IC50) is 9.23 µM (active).
The figure for `CC(c1ccccc1)N1C(=O)c2ccc(C(=O)Nc3ccc(Br)cc3C(=O)O)cc2C1=O` (configuration not stated) is 14.1 µM (active).
